Test results reported in patent US9540691B2, “Assays and methods for selecting a treatment regimen for a subject with depression” (THE GENERAL HOSPITAL CORPORATION, priority 2011, dated 2017).
Read-outs that look alike come from different tables or passages of the source.

Test system: patients with major depressive disorder (MDD) resistant to treatment with SSRIs
Source text: Using the sequential parallel design […] For those randomly assigned to the placebo/placebo sequence, both responders and non-responders to placebo during the first phase (n=25) remain on placebo during the second phase. […] Data from the previous double-blind, placebo-controlled study (Trial 1) can be pooled into the instant study (Trial 2) to provide a more accurate estimate of the placebo effect size, with a weighted average from the two Phases 1 (one from Trial 1 and one from Trial 2) and two Phases 2 (one from Trial 1 and one from Trial 2).
The primary efficacy measure can include the change in 17-item Hamilton Rating Scale for Depression (HAM-D-17) score. […] A remission is, for example, defined as a HAM-D-17 score less than 8 at endpoint. Secondary measures of efficacy can include change in CGI-severity, with “clinical response defined” as CGI-S of 1 or 2 at endpoint. Patients with a CGI-I score greater than 5 at any post baseline visit or a 50 percent or greater worsening of depressive symptoms from baseline to that visit are discontinued from the study. Subjects are also discontinued from the study with any emergence of suicidality, homicidality, mania, or psychosis. Additional exemplary instruments that can be administered according to the study schedule include the following: • (1) Structured Clinical Interview for DSM-IV: The SCID-I/P, administered by the clinician, proceeds by modules to diagnose the different Axis I disorders. Questions are asked exactly as written, and each is based on the individual criteria from DSM-IV. Answers are generally rated on a scale of 1-3 (1=doubtful, 2=probable, 3=definite), and, based on the number of positive answers, a diagnosis is determined by a clinician. While the entire SCID-UP is administered at screen, the mood module is administered at each follow up visit. • (2) The MGH Antidepressant Treatment History Questionnaire (MGH-ATR): The MGH-ATR provides specific criteria for the adequate dose and adequate length of a trial for it to be considered a failure, thus allowing clinicians to systematically collect data aimed at assessing the degree of treatment-resistance of the current major depressive episode. • (3) The 28-item Hamilton Depression Scale (HAM-D-28): This version allows scoring of the HAM-D-17, 21-, 25-, and 28-item scales. This instrument is completed by the clinician by using a structured interview and defined anchor points, and aims to quantify the degree of depression over the past 7 days. The HAM-D is the most widely studied instrument for depression, and its reliability and validity are high. • (4) Clinical Global Impressions-Severity and Improvement (CGI-S, CGI-I): These two instruments are scored 1-7 by the clinician based on assessment of the patient's clinical status. They measure, based on history and scores on other instruments: a) Depressive severity (CGI-S) and b) Clinical Improvement (CGI-I). […] Safety Measurements
Data are entered and error-checked at each clinical site involved in the study. Study staff and subjects may have the option to enter self-evaluations into the system directly using DatStat Illume™. The process of data entry is supervised by the DCRP staff. Once the data set is entered and checked, analyses are conducted. Both a completer analysis of all patients finishing the trial and an intent-to-treat analysis examining all patients enrolled into the trial are used to define the severity of depression at endpoint. Examination of both study completers and all patients randomized can provide the broadest assessment of the effects of treatment in trials of such kind. The data from Trial 2 can be pooled with those from Trial 1 with the sequential parallel comparison design, to provide an estimate of the placebo response based on a larger sample size. […] Let p1, q1 be the response rates to the first administration of drug and placebo respectively and let p2, q2 be the responses rates to the second treatment.

[1] = 7.5 mg/day adjunct to SSRI, Phase 1
[2] = 7.5 mg/day adjunct to SSRI, Phase 2 (Phase 1 completers/non-responders only)
[3] = 7.5 mg/day adjunct to SSRI, pooled Phases 1 and 2 (SPCD)

**Q.** Which results are given for `CN1c2c(nc(N)[nH]c2=O)NC[C@@H]1CNc1ccc(C(=O)N[C@@H](CCC(=O)O)C(=O)O)cc1` [6(S)-5-MTHF, 6(S)-5-methyltetrahydrofolate]?
**A.** efficacy as an adjunct to the SSRIs (in words) (7.5 mg/day): not effective; CGI-S Mean score reduction (SD) [1]: −0.5 (0.9); HDRS-17 % Remission [1]: 11.1% (4); HDRS-17 % Response [1]: 19.8% (7); HDRS-17 Mean score reduction (SD) [1]: −4.3 (5.0); QIDS-SR % Remission [1]: 0.0% (0); QIDS-SR % Responsive [1]: 25.0% (9); QIDS-SR Mean score reduction (SD) [1]: −4.6 (5.1); CGI-S Mean score reduction (SD) [2]: −0.5 (0.7); HDRS-17 % Remission [2]: 14.2% (5); HDRS-17 % Response [2]: 17.1% (6); HDRS-17 Mean score reduction (SD) [2]: −3.1 (4.2); QIDS-SR % Remission [2]: 8.5% (3); QIDS-SR % Responsive [2]: 8.5% (3); QIDS-SR Mean score reduction (SD) [2]: 4.8 (4.1); CGI-S Mean score reduction [3]: −0.53; HDRS-17 Mean score reduction [3]: −3.70; QIDS-SR % Remission [3]: 4.3%; QIDS-SR % Responsive [3]: 19.8%; QIDS-SR Mean score reduction [3]: −0.25; increase in response and remission rate compared to placebo with SSRIs (15 mg/day in second phase, drug/drug sequence): at least 2 fold; response and remission rate (dose increased from 7.5 to 15 mg/day in second phase, drug/drug sequence, placebo with SSRIs 9%, p=0.1): 24%
